Source: the supplement of paper PMC10307832

Compound: CCOC(=O)CCNc1cc(N2CCc3ccccc3CC2)nc(-c2ccccn2)n1 [GSK-J4] + O=C(CCCCCCC(=O)Nc1ccccc1)NO [Vorinostat] (partner 1 µM)
Test: relative viability (nuclei count vs DMSO), 5 days (fraction); higher = more cells survive
Conditions: first compound 50 µM
How it was run: (§1)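 Values are medians from duplicate plates. Each reflects relative viability, defined as the nuclei count of treated wells over that of vehicle wells. Lung cancer cell lines in 1536-well plates were pin-tool dosed one day after seeding with one drug alone or with a fixed anchor-drug dose plus five library-drug doses (not always all listed) in √10 steps, then fixed, stained and imaged at 4× after 5 days.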

Cell Line | relative viability
NCI-H1648 | 0.415
IA-LM | 0.294
HCC-366 | 0.34

Compound: CCOC(=O)CCNc1cc(N2CCc3ccccc3CC2)nc(-c2ccccn2)n1 [GSK-J4] + Cc1nc(Nc2ncc(C(=O)Nc3c(C)cccc3Cl)s2)cc(N2CCN(CCO)CC2)n1 [Dasatinib] (partner 0.075 µM)
Test: as above
Conditions: first compound 0.5 µM
How it was run: as §1

Cell Line | relative viability
NCI-H522 | 0.83
NCI-H1623 | 0.562
PC-14 | 0.252
NCI-H1666 | 0.774
EKVX | 0.535
NCI-H1755 | 0.367
NCI-H2023 | 0.49
HCC-78 | 0.562
SK-LU-1 | 0.176
PC-3 [JPC-3] | 0.978
LOU-NH91 | 0.65
NCI-H647 | 0.2
NCI-H23 | 0.872
EPLC-272H | 0.418
NCI-H2126 | 0.603
ChaGo-K-1 | 0.618
NCI-H1734 | 0.405

Cell Line | relative viability
NCI-H650 | 0.512
LK-2 | 0.354
NCI-H2228 | 0.534
NCI-H2342 | 0.314
NCI-H1944 | 0.225
HARA | 0.267
COR-L23 | 0.477
LCLC-103H | 0.406
LXF-289 | 0.21
NCI-H358 | 0.201
NCI-H322M | 0.269
LC-2-ad | 0.689
HCC-827 | 0.335
SW 900 | 0.603
NCI-H1792 | 0.805
NCI-H1563 | 0.51
HCC-366 | 0.597

Same assay, conditions: first compound 1.581 µM

Cell Line | relative viability
NCI-H522 | 0.803
NCI-H1623 | 0.576
PC-14 | 0.271
NCI-H1666 | 0.879
NCI-H1755 | 0.406
HCC-78 | 0.374
SK-LU-1 | 0.161
PC-3 [JPC-3] | 0.891
LOU-NH91 | 0.612
NCI-H647 | 0.164
NCI-H23 | 0.73
EPLC-272H | 0.327
NCI-H2126 | 0.47
ChaGo-K-1 | 0.501
NCI-H1734 | 0.454
NCI-H650 | 0.507
NCI-H2228 | 0.436
NCI-H2342 | 0.299
NCI-H1944 | 0.223
COR-L23 | 0.393
LCLC-103H | 0.428
LXF-289 | 0.181
NCI-H358 | 0.132
NCI-H322M | 0.19
LC-2-ad | 0.429
HCC-827 | 0.356
SW 900 | 0.496
NCI-H1563 | 0.695
HCC-366 | 0.537

Same assay, conditions: first compound 5 µM

Cell Line | relative viability
NCI-H522 | 0.624
NCI-H1623 | 0.629
PC-14 | 0.204
NCI-H1666 | 0.526
EKVX | 0.569
NCI-H1755 | 0.246
NCI-H2023 | 0.529
HCC-78 | 0.651
SK-LU-1 | 0.127
PC-3 [JPC-3] | 0.742
LOU-NH91 | 0.432
NCI-H647 | 0.0733
NCI-H23 | 0.723
EPLC-272H | 0.262
NCI-H2126 | 0.587
ChaGo-K-1 | 0.461

Cell Line | relative viability
NCI-H1734 | 0.378
NCI-H650 | 0.277
LK-2 | 0.267
NCI-H2228 | 0.683
NCI-H2342 | 0.33
NCI-H1944 | 0.179
LCLC-103H | 0.256
LXF-289 | 0.0979
NCI-H358 | 0.139
NCI-H322M | 0.237
LC-2-ad | 0.535
HCC-827 | 0.435
SW 900 | 0.426
NCI-H1792 | 0.817
NCI-H1563 | 0.461

Same assay, conditions: first compound 15.81 µM

Cell Line | relative viability
NCI-H522 | 0.671
NCI-H1623 | 0.38
PC-14 | 0.285
NCI-H1666 | 0.802
NCI-H1755 | 0.364
NCI-H2023 | 0.48
HCC-78 | 0.3
SK-LU-1 | 0.199
PC-3 [JPC-3] | 0.924
LOU-NH91 | 0.506
NCI-H647 | 0.285
NCI-H23 | 0.723
EPLC-272H | 0.357
NCI-H2126 | 0.56
ChaGo-K-1 | 0.592
NCI-H1734 | 0.396
NCI-H650 | 0.406

Cell Line | relative viability
LK-2 | 0.229
NCI-H2228 | 0.398
NCI-H2342 | 0.365
NCI-H1944 | 0.196
HARA | 0.24
COR-L23 | 0.409
LCLC-103H | 0.281
LXF-289 | 0.121
NCI-H358 | 0.152
NCI-H322M | 0.23
LC-2-ad | 0.44
HCC-827 | 0.312
SW 900 | 0.568
NCI-H1792 | 0.529
NCI-H1563 | 0.42
HCC-366 | 0.415

Same assay, conditions: first compound 50 µM

Cell Line | relative viability
NCI-H522 | 0.664
NCI-H1623 | 0.51
PC-14 | 0.255
NCI-H1666 | 0.536
EKVX | 0.43
NCI-H1755 | 0.361
NCI-H2023 | 0.428
HCC-78 | 0.319
SK-LU-1 | 0.179
PC-3 [JPC-3] | 0.859
LOU-NH91 | 0.631
NCI-H647 | 0.131
NCI-H23 | 0.617
EPLC-272H | 0.282
NCI-H2126 | 0.444
ChaGo-K-1 | 0.518
NCI-H1734 | 0.468

Cell Line | relative viability
NCI-H650 | 0.324
LK-2 | 0.241
NCI-H2228 | 0.525
NCI-H2342 | 0.313
NCI-H1944 | 0.184
HARA | 0.258
COR-L23 | 0.413
LCLC-103H | 0.45
LXF-289 | 0.177
NCI-H358 | 0.158
NCI-H322M | 0.278
LC-2-ad | 0.351
HCC-827 | 0.289
SW 900 | 0.327
NCI-H1792 | 0.809
NCI-H1563 | 0.417
HCC-366 | 0.501

Compound: CCOC(=O)CCNc1cc(N2CCc3ccccc3CC2)nc(-c2ccccn2)n1 [GSK-J4] + CCNC(=O)c1noc(-c2cc(C(C)C)c(O)cc2O)c1-c1ccc(CN2CCOCC2)cc1 [Luminespib] (partner 0.01 µM)
Test: as above
Conditions: first compound 0.5 µM
How it was run: as §1

Cell Line | relative viability
NCI-H522 | 1.22
NCI-H1623 | 0.556
PC-14 | 0.216
NCI-H1666 | 1.02
EKVX | 0.824
NCI-H1755 | 0.355
NCI-H2023 | 0.73
SK-LU-1 | 0.214
PC-3 [JPC-3] | 0.698
LOU-NH91 | 0.347
NCI-H647 | 0.29
NCI-H23 | 0.212
EPLC-272H | 0.263
NCI-H2126 | 0.796
ChaGo-K-1 | 0.56
HCC-44 | 1.02
NCI-H1734 | 0.209

Cell Line | relative viability
NCI-H650 | 0.688
LK-2 | 0.191
NCI-H2228 | 0.189
NCI-H2342 | 0.736
NCI-H1944 | 0.762
HARA | 0.585
COR-L23 | 0.581
LCLC-103H | 0.96
LXF-289 | 0.648
NCI-H358 | 0.292
NCI-H322M | 0.857
LC-2-ad | 0.851
HCC-827 | 0.566
SW 900 | 0.195
NCI-H1792 | 0.46
NCI-H1563 | 0.513

Same assay, conditions: first compound 1.581 µM

Cell Line | relative viability
NCI-H522 | 0.944
NCI-H1623 | 0.427
PC-14 | 0.159
NCI-H1666 | 0.925
EKVX | 0.725
NCI-H1755 | 0.387
NCI-H2023 | 0.685
SK-LU-1 | 0.195
PC-3 [JPC-3] | 0.552
LOU-NH91 | 0.329
NCI-H647 | 0.125
NCI-H23 | 0.197
EPLC-272H | 0.408
NCI-H2126 | 0.867
ChaGo-K-1 | 0.627
HCC-44 | 0.897
NCI-H1734 | 0.167
NCI-H650 | 0.682
NCI-H2228 | 0.124
NCI-H2342 | 0.783
NCI-H1944 | 0.711
COR-L23 | 0.647
LCLC-103H | 0.917
LXF-289 | 0.639
NCI-H358 | 0.304
NCI-H322M | 0.756
LC-2-ad | 0.889
HCC-827 | 0.629
SW 900 | 0.156
NCI-H1563 | 0.484

Same assay, conditions: first compound 5 µM

Cell Line | relative viability
NCI-H522 | 1.2
NCI-H1623 | 0.677
PC-14 | 0.151
NCI-H1666 | 1.11
EKVX | 0.977
NCI-H1755 | 0.504
NCI-H2023 | 0.862
SK-LU-1 | 0.166
PC-3 [JPC-3] | 0.735
LOU-NH91 | 0.254
NCI-H647 | 0.235
NCI-H23 | 0.215
EPLC-272H | 0.346
NCI-H2126 | 0.876
ChaGo-K-1 | 0.594
NCI-H1734 | 0.181
NCI-H650 | 0.597
LK-2 | 0.151
NCI-H2228 | 0.152
NCI-H2342 | 0.865
NCI-H1944 | 0.851
LCLC-103H | 1.01
LXF-289 | 0.785
NCI-H358 | 0.354
NCI-H322M | 0.953
LC-2-ad | 0.701
HCC-827 | 0.832
SW 900 | 0.155
NCI-H1792 | 0.533
NCI-H1563 | 0.477

Same assay, conditions: first compound 15.81 µM

Cell Line | relative viability
NCI-H522 | 0.612
NCI-H1623 | 0.432
PC-14 | 0.126
NCI-H1666 | 1.03
EKVX | 0.755
NCI-H1755 | 0.326
NCI-H2023 | 0.76
SK-LU-1 | 0.201
PC-3 [JPC-3] | 0.584
LOU-NH91 | 0.267
NCI-H647 | 0.166
NCI-H23 | 0.209
EPLC-272H | 0.203
NCI-H2126 | 0.82
ChaGo-K-1 | 0.607
HCC-44 | 0.939
NCI-H1734 | 0.186

Cell Line | relative viability
NCI-H650 | 0.749
LK-2 | 0.193
NCI-H2228 | 0.143
NCI-H2342 | 0.951
NCI-H1944 | 0.649
HARA | 0.675
COR-L23 | 0.68
LCLC-103H | 0.882
LXF-289 | 0.627
NCI-H358 | 0.397
NCI-H322M | 0.646
LC-2-ad | 0.886
HCC-827 | 0.405
SW 900 | 0.177
NCI-H1792 | 0.358
NCI-H1563 | 0.502

Same assay, conditions: first compound 50 µM

Cell Line | relative viability
NCI-H522 | 0.587
NCI-H1623 | 0.283
PC-14 | 0.125
NCI-H1666 | 0.735
EKVX | 0.811
NCI-H1755 | 0.383
NCI-H2023 | 0.472
SK-LU-1 | 0.212
PC-3 [JPC-3] | 0.439
LOU-NH91 | 0.246
NCI-H647 | 0.125
NCI-H23 | 0.201
EPLC-272H | 0.173
NCI-H2126 | 0.651
ChaGo-K-1 | 0.45
HCC-44 | 0.747
NCI-H1734 | 0.155

Cell Line | relative viability
NCI-H650 | 0.519
LK-2 | 0.159
NCI-H2228 | 0.124
NCI-H2342 | 0.858
NCI-H1944 | 0.799
HARA | 0.49
COR-L23 | 0.514
LCLC-103H | 0.486
LXF-289 | 0.507
NCI-H358 | 0.337
NCI-H322M | 0.542
LC-2-ad | 0.54
HCC-827 | 0.526
SW 900 | 0.154
NCI-H1792 | 0.454
NCI-H1563 | 0.526
